Measured values reported in publication PMC12799407, “Differential RELA and GR recruitment to the BIRC3/BIRC2 locus: Molecular insight as to combinatorial regulation by proinflammatory cytokines and glucocorticoid” (Molecular Pharmacology, 2025).
Values joined by “and” are separate entries in the source; they are usually repeats but may differ in a detail not shown here. Equal values may be shown once. Read-outs that look alike come from different tables or passages of the source.

Columns and labels:
R2 reporter = assay: R2 luciferase reporter (BIRC3/BIRC2 locus) stably transfected in A549 cells; assay type: cell-based, human; settings: for EC50: A549, 6 h; for pA2 (Schild analysis): Org34517 1 μM
Description: Data were assumed to be normally distributed and, unless otherwise indicated, are presented as means ± SD with scatterplots showing individual values. […] Multiple comparisons were made using one-way ANOVA with Tukey’s or Dunnett’s post hoc tests, as appropriate. Comparisons between 2 groups were performed by 2-tailed, paired Student’s t test. The number of independent experiments (N) is indicated in each graph and, being exploratory, sample sizes were not prespecified. […] Heat maps were generated using the R package “pheatmap.” Concentration-response relationships were fitted using the 4-parameter model that assumed symmetric variance or using the Gaddum-Schild model of competitive antagonism, as described previously.[43] Variance in pEC50, EMax, or pA2 are provided by Prism as mean ±SE, whereas all curves are plotted as means ±SD (but without scatterplots). Because all analyses were exploratory and were not designed to test prespecified statistical null hypotheses, stated P values should be viewed as being descriptive rather than as hypothesis testing.

R5 reporter = assay: R5 luciferase reporter stably transfected in A549 cells; assay type: cell-based, human; settings: for EC50: Homo sapiens
Description: (§2) Data were assumed to be normally distributed and, unless otherwise indicated, are presented as means ± SD with scatterplots showing individual values. With the exception of pEC50 values, numerical values in tables and text are provided to one decimal place, or where appropriate 2 significant figures of accuracy. […] Multiple comparisons were made using one-way ANOVA with Tukey’s or Dunnett’s post hoc tests, as appropriate. Comparisons between 2 groups were performed by 2-tailed, paired Student’s t test. The number of independent experiments (N) is indicated in each graph and, being exploratory, sample sizes were not prespecified. […] GraphPad Prism software (version 11; Dotmatics) and/or the R package “ggplot2” was used for graph plotting and statistical analyses. Heat maps were generated using the R package “pheatmap.” Concentration-response relationships were fitted using the 4-parameter model that assumed symmetric variance or using the Gaddum-Schild model of competitive antagonism, as described previously.[43] Variance in pEC50, EMax, or pA2 are provided by Prism as mean ±SE, whereas all curves are plotted as means ±SD (but without scatterplots).

R8 reporter [1] = assay: R8 luciferase reporter stably transfected in A549 cells; settings: for EC50 / inhibition at 30 µM: Homo sapiens; for EC50: A549, read-out: pEC50, R8 reporter (converted), Schild experiments (Fig. 7D); for inhibition at 30 µM: A549, read-out: inhibition of IL-1β-plus-dexamethasone-induced R8 reporter activity
Description: as §2

GR recruitment to FKBP5 = assay: ChIP-qPCR of GR recruitment to FKBP5 in A549 cells; assay type: cell-based, human; settings: budesonide 300 nM, 1 hour
Description: (§3) After cell treatments, formaldehyde (PI28906, Thermo Fisher Scientific) was added to a final concentration of 1% for 10 minutes. […] Following cytoplasmic and then nuclear lysis, lysates were sonicated with 30 high-power bursts in a 30 seconds on-off cycle at 4 °C using a Bioruptor (Diagenode). Antibodies: GR, GR-356,[36] RELA (NF-κB p65, D14E12, #8242, Cell Signaling Technologies); RNA polymerase 2 (RNAP2) (Rpb1 NTD D8L4Y, #14958, Cell Signaling Technologies) used for ChIP were preincubated with protein G magnetic Dynabeads (10004D, Thermo Fisher Scientific) overnight at 4 °C and beads were washed as previously described. Nuclear lysates were then incubated with the antibody-coated beads overnight prior to extensive washing. Following reversal of crosslinks, DNA was purified with a ChIP DNA Clean & Concentrator kit (D5205, Zymo Research). Fast SYBR Green Master Mix (Thermo Fisher Scientific) was used in standard quantitative polymerase chain reaction (qPCR) reactions to detect DNA regions of interest. […] Relative occupancy at each region was calculated as ΔΔ threshold cycle (CT) after normalization to the geometric mean of the threshold cycle values for 3 negative control regions (Gene symbols: OLIG3, MYOD1, and MYOG).

R4 reporter = assay: R4 luciferase reporter stably transfected in A549 cells; assay type: cell-based, human; settings: for EC50: Homo sapiens, A549, read-out: EC50, inhibition of IL-1β-induced R4 reporter activity
Description: as §2

R7 reporter = assay: R7 luciferase reporter stably transfected in A549 cells; assay type: cell-based, human
Description: as §2

R0 reporter = assay: R0 luciferase reporter stably transfected in A549 cells; assay type: cell-based, human; settings: IL-1β 1 ng/mL, 6 h (Fig. 3B,C)
Description: as §2

R3 reporter = assay: R3 luciferase reporter stably transfected in A549 cells; assay type: cell-based, human; settings: IL-1β 1 ng/mL, 6 h (Fig. 3B,C)
Description: Data were assumed to be normally distributed and, unless otherwise indicated, are presented as means ± SD with scatterplots showing individual values. […] Multiple comparisons were made using one-way ANOVA with Tukey’s or Dunnett’s post hoc tests, as appropriate. Comparisons between 2 groups were performed by 2-tailed, paired Student’s t test. The number of independent experiments (N) is indicated in each graph and, being exploratory, sample sizes were not prespecified. […] GraphPad Prism software (version 11; Dotmatics) and/or the R package “ggplot2” was used for graph plotting and statistical analyses. Heat maps were generated using the R package “pheatmap.” Concentration-response relationships were fitted using the 4-parameter model that assumed symmetric variance or using the Gaddum-Schild model of competitive antagonism, as described previously.[43] Variance in pEC50, EMax, or pA2 are provided by Prism as mean ±SE, whereas all curves are plotted as means ±SD (but without scatterplots).

[2] = test system: RELA recruitment to CXCL8; assay: ChIP-qPCR of RELA recruitment to CXCL8 in A549 cells; assay type: cell-based, human; settings: IL-1β 1 ng/mL, 1 hour
Description: as §3

BIRC3 mRNA = assay: qPCR of BIRC3 mRNA in A549 cells; assay type: cell-based, human; settings: for EC50: Homo sapiens, A549, 2 h, IL-1β-induced BIRC3 mRNA, 2 h; for repression of IL-1β-induced BIRC3 mRNA: at 30 μM, IL-1β 2 h
Description: (§1) Following treatments, total RNA was extracted and 500 ng used for cDNA synthesis according to standard procedures.[34] After 1:5 dilution, cDNA (2.5 μL) was analyzed by qPCR (StepOnePlus, Applied […] or QuantStudio3, Thermo Fisher Scientific) with Fast SYBR Green Master Mix (4385618, Thermo Fisher Scientific). Amplification conditions and primers specific for BIRC3, BIRC2, and glyceraldehyde-3-phosphate dehydrogenase mRNAs were as described.[9] In each case, relative cDNA concentrations were obtained from standard curves generated by serial dilution of a stimulated cDNA sample that was analyzed in parallel with the experimental samples. Primer specificity was assessed by melt curve analysis where a single peak in the change of fluorescence with temperature was taken to indicate specificity.

BIRC2 mRNA = assay: qPCR of BIRC2 mRNA in A549 cells; assay type: cell-based, human; settings: for effect on IL-1β-induced BIRC2 mRNA expression: concentration series, IL-1β 2 h (Fig. 6C)
Description: as §1

R8 reporter [3] = test system: R8 reporter
Description: as §2

NF-κB reporter = test system: NF-κB reporter; design: method as in PMID 17322026, PMID 37863662, PMID 38941070; settings: read-out: EC50, inhibition of IL-1β-induced NF-κB reporter activity; cited from earlier work
[4] = Homo sapiens, R2 reporter, glucocorticoid + IL-1β (1 ng/mL), 6 h
[5] = Homo sapiens, R2 reporter, glucocorticoid, naïve, 6 h
[6] = A549, 6 h, R5 reporter, glucocorticoid + IL-1β (1 ng/mL), 6 h
[7] = A549, 6 h, R5 reporter, glucocorticoid, naïve, 6 h
[8] = R5 reporter, glucocorticoid + IL-1β (1 ng/mL), % of 1 μM dexamethasone, 6 h
[9] = R5 reporter, glucocorticoid, naïve, expressed as % of 1 μM dexamethasone, 6 h
[10] = R5 reporter, IL-1β, naïve, n.r. = no significant response
[11] = R8 reporter, IL-1β, naïve (Table 1), n.r. = no significant response
[12] = R8 reporter, IL-1β, naïve, budesonide series (Supplemental Table 1), n.r. = no significant response

C[C@@H]1C[C@H]2[C@@H]3CCC4=CC(=O)C=C[C@]4(C)[C@@]3(F)[C@@H](O)C[C@]2(C)[C@@]1(O)C(=O)CO [Dexamethasone, dexamethasone]
EC50 (R2 reporter; [4]): 10.2 nM | EC50 (R2 reporter; [5]): 8.51 nM | EC50 (R5 reporter; [6]): 10 nM | EC50 (R5 reporter; [7]): 11.5 nM | EC50 (R5 reporter; A549, R5 reporter, dexamethasone, Schild experiments (Fig. 7C), read-out: pEC50 (converted)): 11.7 nM | EMax (% of 1 μM dexamethasone ± SE) (R5 reporter; [8]): 16.3% ± 1.8 | EMax (% of 1 μM dexamethasone ± SE) (R5 reporter; [9]): 101% ± 2 | EC50 (R8 reporter [1]; dexamethasone alone): 10.7 nM | EC50 (R8 reporter [1]; dexamethasone in the presence of IL-1β): 8.32 nM

CCCC1O[C@@H]2C[C@H]3[C@@H]4CCC5=CC(=O)C=C[C@]5(C)[C@H]4[C@@H](O)C[C@]3(C)[C@]2(C(=O)CO)O1 (some centres unmarked) [Budesonide, budesonide]
EC50 (R2 reporter; [4]): 5.89 nM | EC50 (R2 reporter; [5]): 3.47 nM | EMax (Fold ± SE) (R2 reporter; R2 reporter, glucocorticoid + IL-1β (1 ng/mL), 6 h): 3.3 Fold | EMax (Fold ± SE) (R2 reporter; R2 reporter, glucocorticoid concentration-response, naïve, 6 h): 2.4 Fold | EC50 (R5 reporter; [6]): 12.3 nM | EC50 (R5 reporter; [7]): 6.61 nM | EMax (% of 1 μM dexamethasone ± SE) (R5 reporter; [8]): 9.3% | EMax (% of 1 μM dexamethasone ± SE) (R5 reporter; [9]): 92.2% | recruitment of GR to FKBP5, fold (GR recruitment to FKBP5): 240 ± 150 fold | EMax (Fold ± SE) (R8 reporter [1]; R8 reporter, glucocorticoid + IL-1β (1 ng/mL), 6 h): 16.2 Fold | EMax (Fold ± SE) (R8 reporter [1]; R8 reporter, glucocorticoid, naïve, 6 h): 2.2 Fold

IL-1β: Recombinant human IL-1β (R&D Systems), proinflammatory cytokine
EMax (Fold ± SE) (R2 reporter; R2 reporter, IL-1β + dexamethasone (1 μM), 6 h): 3.8 ± 0.2 Fold | reporter activity, fold (R2 reporter; R2 reporter, IL-1β at 1 ng/mL in the presence of dexamethasone (1 μM) (Fig. 3F)): 4.0 ± 1.1 fold | EMax (Fold ± SE) (R2 reporter; R2 reporter, IL-1β concentration-response, naïve, n.r. = no significant response): n.r. | pEC50 (−log[g/ mL] ± SE) (R2 reporter; R2 reporter, IL-1β, naïve, n.r. = no significant response): n.r. | EMax (Fold ± SE) (R4 reporter; R4 reporter, IL-1β + Budesonide (300 nM)): 4.8 Fold | EMax (Fold ± SE) (R4 reporter; R4 reporter, IL-1β + dexamethasone (1 μM), 6 h): 4.3 ± 0.1 Fold | EMax (Fold ± SE) (R4 reporter; R4 reporter, IL-1β, naïve, 6 h (Table 1)): 3.5 ± 0.1 Fold | EMax (Fold ± SE) (R4 reporter; R4 reporter, IL-1β, naïve, budesonide series (Supplemental Table 1)): 3.6 Fold | reporter activity, fold of no stimulation ± SD (R4 reporter; R4 reporter, dexamethasone 1 μM, IL-1β 1 ng/mL or both, 6 h (Fig. 3C)): 3.3 ± 1.9 fold | reporter activity, fold of not stimulated (R4 reporter; R4 reporter, naïve cells, dexamethasone 1 μM, IL-1β 1 ng/mL or both, 6 h (Fig. 5C)): 2.8 ± 0.7 fold | EMax (% of 1 μM dexamethasone ± SE) (R5 reporter; R5 reporter, IL-1β + dexamethasone (1 μM): inhibition of dexamethasone-induced activity, % of 1 μM dexamethasone): 15.1% ± 3.1 | EMax (R5 reporter; [10]): n.r. | pEC50 (−log[g/ mL] ± SE) (R5 reporter; [10]): n.r. | reporter inducibility, fold (R7 reporter; IL-1β 1 ng/mL (Fig. 6A)): 2.3 fold | reporter inducibility, fold (R7 reporter; IL-1β 1 ng/mL, 6 h (Fig. 5C)): 2.0 ± 0.9 fold | reporter activity, fold of no stimulation ± SD (R7 reporter; dexamethasone 1 μM, IL-1β 1 ng/mL or both, 6 h (Fig. 3C)): 2.0 ± 0.7 fold and 2.0 fold | reporter activity, fold of no stimulation ± SD (R0 reporter): 1.6 ± 0.5 fold | reporter activity, fold of no stimulation ± SD (R3 reporter): 1.4 ± 0.3 fold | recruitment of RELA to CXCL8, fold [2]: 48 ± 11 fold | EMax (Fold ± SE) (R8 reporter [1]; R8 reporter, IL-1β + Budesonide (300 nM)): 9.3 Fold | EMax (Fold ± SE) (R8 reporter [1]; R8 reporter, IL-1β + dexamethasone (1 μM), 6 h): 16.5 ± 1.0 Fold | reporter activity, fold (R8 reporter [1]; R8 reporter, IL-1β alone (Fig. 3I)): 1.2 ± 0.3 fold | EMax (Fold ± SE) (R8 reporter [1]; [11]): n.r. | pEC50 (−log[g/ mL] ± SE) (R8 reporter [1]; [11]): n.r. | EMax (Fold ± SE) (R8 reporter [1]; [12]): n.r. | pEC50 (-log[g/ml] ±SE) (R8 reporter [1]; [12]): n.r. | reporter activity, fold of no stimulation ± SD (R8 reporter [1]; R8 reporter, dexamethasone 1 μM, IL-1β 1 ng/mL or both, 6 h (Fig. 3C)): 1.3 ± 0.7 fold

COc1c(Cl)cc2c([nH]c3cnccc32)c1NC(=O)c1cccnc1C.Cl.Cl [ML120B, N-(6-Chloro-7-methoxy-9H-pyrido[3,4-b]indol-8-yl)-2-methyl-3-pyridinecarboxamide dihydrochloride]
reduction in reporter activity in the presence of IL-1β (R2 reporter): 27.8% | reduction in reporter activity induced by dexamethasone (R2 reporter): 34.0% | EC50 (R4 reporter): ≥ 30000 nM | EC50 (BIRC3 mRNA): 2950 nM | repression of IL-1β-induced BIRC3 mRNA (BIRC3 mRNA): ~54% | EC50 (BIRC2 mRNA; Homo sapiens, A549, 2 h): 10500 nM | effect on IL-1β-induced BIRC2 mRNA expression (BIRC2 mRNA): partial repressive effect | EC50 (R8 reporter [3]): 10000 nM | EC50 (NF-κB reporter): 8200 nM | inhibition at 30 µM (R8 reporter [1]): > 75%

NC(=O)Nc1sc(-c2ccc(F)cc2)cc1C(N)=O [TPCA-1, 2-[(aminocarbonyl)amino]-5-(4-fluorophenyl)-3-thiophenecarboxamide]
inhibition at 30 µM (R2 reporter; Homo sapiens, A549, read-out: inhibition of IL-1β-plus-dexamethasone-induced reporter activity): 56% | EC50 (R4 reporter): 2600 nM | repression of IL-1β-induced BIRC3 mRNA (BIRC3 mRNA): near complete inhibition | effect on IL-1β-induced BIRC2 mRNA expression (BIRC2 mRNA): below 10 μM, TPCA-1 was without effect | EC50 (NF-κB reporter): 2000 nM | inhibition of IL-1β-plus-dexamethasone-induced R8 reporter activity (R8 reporter [1]; inhibitor 30 μM): complete inhibition

CC#C[C@]1(O)CCC2C3CCC4=CC(=O)CCC4=C3[C@@H](c3ccc4c(c3)OCO4)C[C@@]21C (some centres unmarked) [Org34517]
pA2 (Schild analysis) (R2 reporter; R2 reporter, antagonism of dexamethasone + IL-1β): 7.99 | pA2 (Schild analysis) (R2 reporter; R2 reporter, antagonism of dexamethasone, consistent with antagonism at GR): 7.71 | effect on induced R4 reporter activity (R4 reporter; Org34517 1 μM, P ≤ .05 and .01): reduced | dexamethasone-induced luciferase activity in the presence of Org34517, fold (R5 reporter; R5 reporter, Org34517 1 μM, dexamethasone 1 μM): 1.7 fold | pA2 (Schild analysis) (R5 reporter; R5 reporter, antagonism of dexamethasone, Org34517 1 μM): 8.33 ±0.14 | IL-1β-plus-dexamethasone-induced reporter activity in the presence of Org34517, fold (R8 reporter [1]; R8 reporter, Org34517 1 μM): 6.3 fold | dexamethasone-induced reporter activity in the presence of Org34517, fold (R8 reporter [1]; R8 reporter, Org34517 1 μM, dexamethasone 1 μM): 1.4 fold | pA2 (Schild analysis) (R8 reporter [1]; R8 reporter, antagonism of dexamethasone + IL-1β, Org34517 1 μM): 8.14 ± 0.11 | pA2 (Schild analysis) (R8 reporter [1]; R8 reporter, antagonism of dexamethasone, Org34517 1 μM): 8.14 ± 0.11

O=C(Nc1cc(Cl)cc2c1[nH]c1cnccc12)c1cccnc1 [PS-1145, N-(6-chloro-9h-pyrido[3,4-b]indol-8-yl)-3-pyridinecarboxamide]
inhibition of IL-1β-plus-dexamethasone-induced reporter activity (R2 reporter; R2 reporter, inhibitor 30 μM (Fig. 6A)): unaffected | reduction in reporter activity induced by dexamethasone (R2 reporter; R2 reporter, inhibitor 30 μM, dexamethasone 1 μM (Fig. 6A)): unaffected | reduction of dexamethasone-induced R4 reporter activity (R4 reporter; inhibitor 30 μM, dexamethasone 1 μM): 24.5% | EC50 (BIRC3 mRNA): 2750 nM | repression of IL-1β-induced BIRC3 mRNA (BIRC3 mRNA): ~54% | effect on IL-1β-induced BIRC2 mRNA expression (BIRC2 mRNA): no effect on IL-1β-induced expression until a concentration of 100 μM | EC50 (NF-κB reporter): 1000 to 2000 nM | inhibition at 30 µM (R8 reporter [1]): > 60%
